The assay is described as follows: EBV protein-peptide binding inhibitors, dose response, biochemical, fluorescence polarization (AID 1419). As to conditions: cell-free protein-peptide binding, 2 h; for fold change: measured here: P channel fold over control, at 54 µM. (In general: In fluorescence polarisation assays a small probe gives low polarisation when free and higher when bound to something large.)

This note sets out measurements from PubChem BioAssay AID1419 (Emory University Molecular Libraries Screening Center, 2008).

Activity calls are given as the source filed them. No rule for the calls is given here. Some results are limits rather than exact numbers.

Broadly, the IC50 is the concentration that inhibits the measured activity by half. As to `CCOc1cc(/C=N/NC(=O)c2ccc(-c3csc(Nc4ccc(C)cc4)n3)cc2)ccc1OCC(=O)O`, the IC50 is 14.8 µM and the fold change came to 1.08.
Take `O=C(NC(NC(=S)Nc1ccc(Cl)cc1Cl)C(Cl)(Cl)Cl)c1cccc([N+](=O)[O-])c1` (stereo not drawn): the IC50 is > 54 µM (inactive) and the fold change came out at 0.953.
Take `O=C(c1ccc(Cl)cc1)C1C2C(=O)N(c3ccccc3)C(=O)C2C2CCCN21` (stereo not drawn): the IC50 was under 0.42 µM and the fold change worked out at 8.
The like results for `CCOCCCNc1nc2c(C)cccn2c(=O)c1/C=C1\SC(=S)N(CC(C)C)C1=O` were, in that order, > 54 µM (inactive) and 1.58.
The like results for `CCn1c2ccccc2c2cc(NC(=O)c3coc(=O)c(Br)c3)ccc21` were, in that order, under 0.42 µM and 21.9.
In the same order, the values of `N#C/C(=C\C=C\c1ccccc1)c1nc(-c2ccc3c(c2)OCO3)cs1` are 1.49 µM and 14.2.
Regarding `CC(C)COc1ccc(C(=O)NC(CC(C)C)C(=O)O)cc1` (stereo not drawn), the IC50 was > 54 µM (inactive) and the fold change worked out at 1.07.
In the same order, the values of `S=C(Nc1ccc(N2CCOCC2)cc1)Nc1ccc2nc(-c3ccco3)c(-c3ccco3)nc2c1` are 3.86 µM and 3.7.
In the same order, the values of `Cn1cc(/C=C2\SC(=S)N(NC(=O)c3ccccc3)C2=O)c2ccccc21` are > 54 µM (inactive) and 5.3.
The like results for `CCCn1nc(-c2ccccc2)c2nc3ccccc3nc21` were, in that order, 2.37 µM and 32.
On to `CCCCNC(=O)CN1C(=O)c2cccc(N)c2C1=O`, for which the IC50 is 2.71 µM and the fold change stood at 2.44.
The like results for `CCOC(=O)/C(C#N)=C/c1ccc(N2CCN(Cc3ccccc3)CC2)cc1` were, in that order, 40.3 µM (inactive) and 9.09.
In the same order, the values of `O=C(Cn1c2ccccc2c(=O)c2ccccc21)N/N=C/c1ccc(N2CCCC2)c([N+](=O)[O-])c1` are > 54 µM (inactive) and 0.76.
Take `Cc1ccc(S(=O)(=O)c2cc3c(=O)n4ccccc4nc3n(Cc3ccco3)c2=N)cc1`: the IC50 was > 54 µM (inactive) and the fold change worked out at 1.74.
For the compound `Cn1c(=O)cc2c3c(c(N4CCCCC4)ccc31)C(=O)c1ccccc1-2`, the IC50 was 4.67 µM and the fold change is 1.91.
The like results for `O=C(c1ccccc1)c1ccc2c(c1)OCCCO2` were, in that order, > 54 µM (inactive) and 1.02.
For `CCCCCCn1c(=O)[nH]c2nc3cc(N)ccc3nc2c1=O`, the IC50 was under 0.42 µM and the fold change amounted to 85.8.
In the same order, the values of `O=C(Cn1cc2c(n1)CCCC2)NCc1ccccn1` are 25.9 µM and 1.54.
The like results for `Cc1cccn2c(=O)c(/C=C3\SC(=S)N(CC(C)C)C3=O)c(NCCCOC(C)C)nc12` were, in that order, > 54 µM (inactive) and 1.37.
As for `Cc1nn(-c2ccccc2)c(N2CCCC2)c1/C=C1\N=C(c2ccc(F)cc2)OC1=O`, the IC50 was 7.44 µM and the fold change worked out at 5.64.
With `Cc1ccc2cc(C=C(C#N)C#N)c(N3CCCCC3)nc2c1`, the IC50 is 2.98 µM and the fold change turned out to be 24.
In the same order, the values of `CCOC(=O)c1cc2n(c1N)-c1ccccc1C2=O` are under 0.42 µM and 104.
The like results for `O=C(N/N=C/c1cccc(F)c1)c1cc(-c2ccco2)nc2ccccc12` were, in that order, 3.61 µM and 1.06.
For `O=[N+]([O-])c1ccc(Sc2cccc3cccnc23)c2cccnc12`, the IC50 is 29.5 µM and the fold change was 2.58.
Turning to `O=c1[nH]n2c(=O)c3c([nH]c2c1N=Nc1cccc(Cl)c1)CCC3`, the IC50 is > 54 µM (inactive) and the fold change is 0.94.
In the same order, the values of `CCN(CC)c1ccc(/C=C(\C#N)C(=O)c2ccc(Br)cc2)cc1` are 2.69 µM and 107.
In the same order, the values of `COc1ccc(N=Cc2cc(Cc3ccccc3Cl)cc([N+](=O)[O-])c2O)cc1OC` are 13.8 µM and 2.41.
With `CCn1c(SC(C)C(=O)O)nc2sc3c(c2c1=O)CCC3` (stereo not drawn), the IC50 is > 54 µM (inactive) and the fold change turned out to be 1.12.
Consider `NC(=S)n1[nH]c(-c2ccc([N+](=O)[O-])cc2)c(N=Nc2cccc([N+](=O)[O-])c2)c1=O`, for which the IC50 was 3.71 µM and the fold change is 1.14.
In the same order, the values of `O=C(OCCN1C(=O)c2cccc3c(N4CCOCC4)ccc(c23)C1=O)c1ccc(Cl)cc1Cl` are 1.81 µM and 84.3.
The like results for `COc1ccc(CCNc2nc(-c3cccnc3)cs2)cc1OC` were, in that order, > 54 µM (inactive) and 1.04.
The like results for `CCOC(=O)c1c(/N=C/c2c(O)n(-c3ccccc3F)c(=S)[nH]c2=O)sc2c1CCCC2` were, in that order, 2.97 µM and 29.6.
In the case of `CCCCOc1[nH]c2nc(-c3ccco3)n(Cc3ccco3)c(=N)c2c1C#N`, the IC50 was > 54 µM (inactive) and the fold change was 1.17.
The like results for `O=c1[nH]c(=O)n(Cc2ccccc2Cl)c(O)c1/C=C1/C=CC=N1` were, in that order, > 54 µM (inactive) and 1.75.
